Patent US10751417B2, “Sustained release delivery systems comprising traceless linkers” (NOVARTIS AG, priority 2017, dated 2020)

Test: Release study 8-4a: model traceless linker-drug conjugates M1-M19 held in 1×PBS at 37 °C, HPLC-UV/MS
Format: physicochemical
Details: 1 mM in 1×PBS, first order fit, rounded to nearest whole day
Method: 8-4a. Release Study Protocol for M1-M19 Model Traceless Linker-Drug Conjugates In Vitro
In this study a series of model traceless linker-drug conjugates, in which the drug is a low molecular weight amine-containing compound, was held in 1×PBS at 37° C. These reactions were sampled at various timepoints and analyzed to determine concentration of remaining starting compound, as well as concentration of the released amine-containing drug (p-methoxybenzylamine, 2-amino-pyridine, p-methoxyaniline, or N-methyl-p-methoxybenzylamine). Half-lives for the parent degradation and the half-lives of release for the amine-containing drug were calculated.
Method for Estimation of Amine-Containing Drug Release Rates from M1-M19
Each compound M1-M19 was prepared as a 0.1 M stock solution in DMF, as were a set of standard solutions for the released amine-containing drug (4-methoxybenzylamine, 2-aminopyridine, p-methoxyaniline, and N-methyl-p-methoxybenzylamine). A 35 μL aliquot of each solution was added to 3.465 mL of PBS to obtain 1 mM solutions of each conjugate or amine-containing drug. A 150 μL aliquot of each 1 mM solution was dispensed into LCMS vials with a polypropylene insert; 2 vials were prepared for each compound at each time point.
The vials were incubated at 37° C. At each time point (e.g., 0, 1, 5, 7, 14, 21, 28, 35, 49, and 56 days), two vials of each conjugate were removed from the incubator and frozen at −20° C. to avoid further hydrolysis. All samples were thawed and analyzed in one batch after completion of the release study using the analytical HPLC method described below. Each sample was analyzed twice. Control solutions of the amine-containing drugs were prepared prior to analysis and were analyzed as is without prior incubation at 37° C.
Analytical HPLC-MS Conditions for Study 8.4a
HPLC: Thermo Accela HPLC and Autosampler; Autosampler Tray Temperature: 8° C.; Injection Volume: 20 μL; Column: Phenomenex Kinetex C18, 2.1×50 mm, 2.6 μm. Column Temperature: Ambient; Mobile Phases: A=0.1% formic acid in water; B=0.1% formic acid in acetonitrile; Flow Rate: 200 μL/min. Gradient (time/% B): 0/0, 3/0, 10/80, 15/80, 15.1/0, 18/0.
UV: Thermo Accela PDA; Scan Range: 200-400 nm; Wavelength Step: 1 nm; Sample Rate: 20 Hz; Filter Bandwidth: 9 nm; MS: Thermo LTQ XL; Ionization Mode: ESI; Spray Voltage: 0 V at time 0-1 minutes then switched to 4 kV; Capillary Temperature: 250° C.; Divert Valve: LC eluate to waste at time 0-1 minutes then flow diverted MS; Mass Range: 120-800 Da.
The composition of the solution was evaluated at each timepoint using HPLC. Parent, intermediate and released amine-containing drug peaks were assigned by MS detection, and the relative amounts of each species were determined by integration of the peaks from the chromatogram generated using UV absorbance detection at 272 nm. The mean peak area for each compound M1-M19 on Day 0 was assigned a normalized value of 100. For the standard of the amine-containing drug being released (e.g., p-methoxybenzylamine) the mean peak area of each standard was assigned a normalized value of 100. The absolute area under curve for each species detected were compared with these values. Run-to-run peak area reproducibility was typically within 20% on strong signal and considerably worse on weak signals, so normalized signals above 100 likely correspond to values at or approaching 100 (likely 90-100, within experimental error). The percentage of parent and amine-containing drug present in the solution were calculated by dividing the relevant peak area by the mean area that was assigned a normalized value of 100 for the same species and multiplying the result by 100. The percentage of parent and amine-containing drug present in the solution was plotted versus time and the half-life of degradation for the parent and the half-life of release for the amine-containing drug were estimated using curve-fitting software assuming first order kinetics.

Structure (SMILES) | Calculated stability t1/2, parent (d)
CNC(=O)OCC1CN(C(C)=O)CCN1CC(=O)NCc1ccc(OC)cc1 (stereo not drawn) [M9, 1-(4′-acetyl-1′-(2″-((4″′-methoxybenzyl)amino)-2″-oxoethyl)piperazin-2′-yl)methyl N-methylcarbamate] | No degradation
COc1ccc(CNC(=O)CN2CCN(C(C)=O)CC2COC2CCCCO2)cc1 (stereo not drawn) [M10, 2-(4′-acetyl-2′-(((tetrahydro-2″H-pyran-2″-yl)oxy)methyl)piperazin-1′-yl)-N-(4′″-methoxybenzyl)acetamide] | No degradation

Same assay, conditions: 1 mM in 1×PBS, first order fit, rounded to nearest whole day, read-out: Calculated stability t1/2, parent (converted)

Structure (SMILES) | half-life at 1 mM [days]
CC(=O)OCC1CN(C)CCN1CC(=O)Nc1ccccn1 (stereo not drawn) [M18, 1-(4′-methyl-1′-(2″-oxo-2″-(pyridin-2′″-ylamino)ethyl)piperazin-2′-yl)methyl acetate] | 8
COCC(=O)OCC1CN(C(=O)CCNC(=O)OCc2ccccc2)CCN1CC(=O)Nc1ccc(OC)cc1 (stereo not drawn) [M5, (4-(3′-(((benzyloxy)carbonyl)amino)propanoyl)-1-(2′-((4″′-methoxyphenyl)amino)-2″-oxoethyl)piperazin-2-yl)methyl 2″″-methoxyacetate] | 3
COC(=O)C1CN(C(C)=O)CCN1CC(=O)NCc1ccc(OC)cc1 (stereo not drawn) [M7, methyl 4-acetyl-1-(2′-((4″-methoxybenzyl)amino)-2′-oxoethyl)piperazine-2-carboxylate] | 3
COc1ccc(CNC(=O)CN2CCN(C(C)=O)CC2COC(C)=O)cc1 (stereo not drawn) [M6, (4-acetyl-1-(2′-((4″-methoxybenzyl)amino)-2′-oxoethyl)piperazin-2-yl)methyl acetate] | 26

Results, then the compound that gave them:

half-life at 1 mM [days] | Structure (SMILES)
2 | COCC(=O)OCC1CN(C(=O)CCNC(=O)OCc2ccccc2)CCN1CC(=O)NCc1ccc(OC)cc1 (stereo not drawn) [M3, (4-(3′-(((benzyloxy)carbonyl)amino)propanoyl)-1-(2″-((4″′-methoxybenzyl)amino)-2″-oxoethyl)piperazin-2-yl)methyl methoxyacetate]
37 | CCC(=O)OCC1CN(C(=O)CCNC(=O)OCc2ccccc2)CCN1CC(=O)NCc1ccc(OC)cc1 (stereo not drawn) [M1, (4-(3′-(((benzyloxy)carbonyl)amino)propanoyl)-1-(2″-((4″′-methoxybenzyl)amino)-2″-oxoethyl)piperazin-2-yl)methyl propionate]
2 | COCC(=O)OCC1CN(C(=O)CCNC(=O)OCc2ccccc2)CCN1CC(=O)N(C)Cc1ccc(OC)cc1 (stereo not drawn) [M4, (4-(3′-(((benzyloxy)carbonyl)amino)propanoyl)-1-(2″-((4′″-methoxybenzyl)(methyl)amino)-2″-oxoethyl)piperazin-2-yl)methyl 2-methoxyacetate]
35 | COC(=O)OCC1CN(C(C)=O)CCN1CC(=O)NCc1ccc(OC)cc1 (stereo not drawn) [M8, (4-acetyl-1-(2′-((4″-methoxybenzyl)amino)-2′-oxoethyl)piperazin-2-yl)methyl methyl carbonate]
23 | COc1ccc(CNC(=O)CN2CCN(C(=O)CCNC(=O)OCc3ccccc3)CC2COC(C)=O)cc1 (stereo not drawn) [M2, (4-(3′-(((benzyloxy)carbonyl)amino)propanoyl)-1-(2″-((4″′-methoxybenzyl)amino)-2″-oxoethyl)piperazin-2-yl)methyl acetate]
50 | CC(=O)OCC1CN(C(C)=O)CCN1CC(=O)Nc1ccccn1 (stereo not drawn) [M17, 1-(4′-acetyl-1′-(2″-oxo-2″-(pyridin-2′″-ylamino)ethyl)piperazin-2′-yl)methyl acetate]
6 | CCC1CCN(CC(=O)Nc2ccccn2)C(COC(C)=O)C1 (stereo not drawn) [M19, 1-(4′-ethyl-1′-(2″-oxo-2″-(pyridin-2″′-ylamino)ethyl)piperidin-2′-yl)methyl acetate]

Test: Release study 8-4b: degradation of model conjugates M20-M27 in aqueous DMF:PBS at 37 °C, HPLC-UV/MS
Format: physicochemical
Details: 1 mM in 2:1 DMF:PBS, first order fit, rounded to nearest whole day
Method: 8-4b. M20-M27 In Vitro Release Study
In this study, a series of model traceless linker-drug conjugates M20-M27 was held in aqueous solution at 37° C. These reactions were sampled at various timepoints and analyzed to determine the concentration of remaining starting compound. The analytical method was not optimized to determine concentration of the amine-containing drug. Half-life of degradation for the parent was calculated.
Method for Estimation of Conjugate Degradation Rates for M20-M27
Each compound M20-M27 was prepared as a 0.1 M stock solution in DMF. A 35 μL aliquot of each solution was added to 3.465 mL of 2:1 DMF:PBS (for compound M24: 3:1 DMF:PBS) to obtain 1 mM solutions of each compound M20-M27. The reaction vials were held at 37° C. At each time point (e.g., 0, 1, 3, 8, 14, 21, 28, 35, 49, 56, 70, 92 days) analytical samples were prepared by collecting 150 μL from each 1 mM solution and diluting with 75 μL DMF. Two analytical samples were collected from each reaction vial at each time point and stored at 4° C. All samples were analyzed in one batch after completion of the release study. Each sample was analyzed twice using an analytical HPLC method described below.
The composition of the reaction solution was evaluated at each timepoint using HPLC. Compound M20-M27 peaks were assigned by MS detection, and the integration of the peak from the chromatogram generated using UV absorbance detection at 272 nm was determined. The mean peak area for each compound M20-M27 on Day 0 was assigned a normalized value of 100. The absolute area under the curve at each timepoint was compared with these values. Run-to-run peak area reproducibility was typically within 20% on strong signal and considerably worse on weak signals, so normalized signals above 100 likely correspond to values at or approaching 100 (likely 90-100, within experimental error). The percentage of compounds M20-M27 remaining in the solution were calculated by dividing the relevant peak area by the mean area that was assigned a normalized value of 100 and multiplying the result by 100. The percentage of compound M20-M27 present in the solution was plotted versus time and the half-life of degradation was estimated using curve-fitting software assuming first order kinetics.
Analytical HPLC-MS Conditions for Study 8.4b.
All settings the same as for analytical HPLC-MS conditions for study 8.4a except the following: Mobile Phases: A=5 mM ammonium hydroxide in water; B=5 mM ammonium hydroxide in acetonitrile; Flow Rate: 400 μL/min: Gradient (time/% B): 0/10, 0.5/10, 4/80, 8/80, 8.1/10, 12/10. Divert valve switched at 0.5 minutes after sample injection.

Structure (SMILES) | Calculated stability t1/2, parent (d)
CCO[Si](OCC1CN(C(=O)CCNC(=O)OCc2ccccc2)CCN1CC(=O)NCc1ccc(OC)cc1)(C(C)C)C(C)C (stereo not drawn) [M27, benzyl N-(3-(3′-(((ethoxydiisopropylsilyl)oxy)methyl)-4′-(2″-((4′′′-methoxybenzyl)amino)-2″-oxoethyl)piperazin-1′-yl)-3-oxopropyl)carbamate] | No degradation
COc1ccc(CNC(=O)CN2CCN(C(=O)CCNC(=O)OCc3ccccc3)CC2CO[Si](OC(C)C)(C(C)C)C(C)C)cc1 (stereo not drawn) [M26, benzyl N-(3-(3′-(((isopropoxydiisopropylsilyl)oxy)methyl)-4′-(2″-((4′′′-methoxybenzyl)amino)-2″-oxoethyl)piperazin-1′-yl)-3-oxopropyl)carbamate] | No degradation

Same assay, conditions: 1 mM in 2:1 DMF:PBS, first order fit, rounded to nearest whole day, read-out: Calculated stability t1/2, parent (converted)

Structure (SMILES) | half-life at 1 mM [days]
CC[Si](CC)(OCCOCCOC)OCC1CN(C(=O)CCNC(=O)OCc2ccccc2)CCN1CC(=O)NCc1ccc(OC)cc1 (stereo not drawn) [M22] | 23
CC[Si](CC)(OCC1CN(C(=O)CCNC(=O)OCc2ccccc2)CCN1CC(=O)NCc1ccc(OC)cc1)OC(C)C (stereo not drawn) [M20, Benzyl N-(3-(3′-(((diethyl(isopropoxy)silyl)oxy)methyl)-4′-(2″-((4′″-methoxybenzyl)amino)-2″-oxoethyl)piperazin-1′-yl)-3-oxopropyl)carbamate] | 51
CC[Si](CC)(OCC1CN(C(=O)CCNC(=O)OCc2ccccc2)CCN1CC(=O)NCc1ccc(OC)cc1)OC1CCOCC1 (stereo not drawn) [M21] | 126
CCOCC(C)O[Si](CC)(CC)OCC1CN(C(=O)CCNC(=O)OCc2ccccc2)CCN1CC(=O)NCc1ccc(OC)cc1 (stereo not drawn) [M23] | 47
CCC(C)O[Si](CC)(CC)OCC1CN(C(=O)CCNC(=O)OCc2ccccc2)CCN1CC(=O)NCc1ccc(OC)cc1 (stereo not drawn) [M25] | 80

Same assay, conditions: 1 mM in 3:1 DMF:PBS (compound M24), first order fit, read-out: Calculated stability t1/2, parent (converted)

Structure (SMILES) | half-life at 1 mM [days]
CC[Si](CC)(OCC(C)C)OCC1CN(C(=O)CCNC(=O)OCc2ccccc2)CCN1CC(=O)NCc1ccc(OC)cc1 (stereo not drawn) [M24] | 36
